Measurements as given in US9012433B2, “Substituted tetracycline compounds” (Paratek Pharmaceuticals, Inc., priority 2006, dated 2015).
≈ marks a conversion by molar mass, not a printed value.

Experiments:
Assay type in all cases: cell-based
[1] = tested on: B. thetaiotaomicron ATCC 29741; experiment: Antibacterial MIC, CLSI broth microdilution; conditions: Bacteroides thetaiotaomicron, ATCC29741; 35° C., 18-24 hours; read-out: MIC B. thetaiotaomicron ATCC 29741
Procedure: (§1) Grain (−) and gram (+) antibacterial minimum inhibitory concentration (MIC) values (μg/mL) were obtained using CLSI methodology for anti-bacterial susceptibility testing. On each day of testing, serial dilutions of compounds were prepared in microdilution plates using a Tecan robotic workstation. Mueller Hinton broth cultures of representative sensitive and resistant gram negative strains were grown or adjusted to match the turbidity of a 0.5 McFarland standard. 1:200 dilutions were made in an appropriate broth (cation supplemented Mueller Hinton broth) to allow a final inoculum of 1×10^5 cfu. Plates were incubated at 35° C. in ambient air for 18-24 hours, were read spectrophotometrically and checked manually for evidence of bacterial growth. The lowest dilution of compound that inhibited growth was recorded as the MIC. Lysed horse blood was used to supplement broth for testing S. pneumoniae. The MIC's for each compound were assessed against S. aureus, S. pneumoniae, P. acnes, E. coli and B. theta.

[2] = tested on: E. coli ATCC 25922; experiment: Antibacterial MIC, CLSI broth microdilution; conditions: Escherichia coli, ATCC25922; 35° C., 18-24 hours
Procedure: as §1

[3] = tested on: E. coli MG 1655; experiment: Antibacterial MIC, CLSI broth microdilution; conditions: Escherichia coli, MG1655; 35° C., 18-24 hours
Procedure: as §1

[4] = tested on: P. acnes ATCC 11827; experiment: Antibacterial MIC, CLSI broth microdilution; conditions: Cutibacterium acnes, ATCC11827; 35° C., 18-24 hours
Procedure: as §1

[5] = tested on: P. acnes ATCC 6919; experiment: Antibacterial MIC, CLSI broth microdilution; conditions: Cutibacterium acnes, ATCC6919; 35° C., 18-24 hours
Procedure: as §1

[6] = tested on: S. aureus RN450; experiment: Antibacterial MIC, CLSI broth microdilution; conditions: Staphylococcus aureus, RN450; 35° C., 18-24 hours
Procedure: as §1

[7] = tested on: S. pneumoniae 157E - Strep; experiment: Antibacterial MIC, CLSI broth microdilution; conditions: Streptococcus pneumoniae, 157ESTREP; 35° C., 18-24 hours; lysed horse blood
Procedure: as §1

[8] = in vitro
Procedure: Mammalian cell cytotoxicity was assessed to evaluate potential in vivo risks associated with the tetracycline compounds of the invention. A soluble, non-toxic redox dye (“Resazurin”; Alamar Blue) was used to assess a tetracycline compound's effect on cellular metabolism. At the onset of the experiment, cultures of mammalian COS-1 or CHO cells were washed, trypsinized, and harvested. […] On the next day, serial dilutions of test drug were prepared under sterile conditions and transferred to cell plates. Plates were then incubated under the above conditions for 24 hours. Following the incubation period, the media/drug was aspirated, and 50 μL of resazurin was added. Plates were then incubated under the above conditions for 2 hours and then in the dark at room temperature for an additional 30 minutes. Fluorescence measurements were taken (excitation 535 nm, emission 590 nm) and toxic effects in treated versus control cells were compared based on the degree of fluorescence in each well.

SMILES | MIC [1] [µg/mL] | MIC [2] [µg/mL] | MIC [3] [µg/mL] | MIC [4] [µg/mL] | MIC [5] [µg/mL] | MIC [6] [µg/mL] | MIC [7] [µg/mL] | IC50 at 24 h ([8]; African green monkey) [µg/mL] | IC50 at 24 h ([8]; Chinese hamster) [µg/mL]
CN(C)[C@@H]1C(O)=C(C(N)=O)C(=O)[C@@]2(O)C(O)=C3C(=O)c4c(O)ccc(CNOC(C)(C)C)c4C[C@H]3C[C@@H]12 [AB] | 4 to 8 (≈ 7.76 to 15.5 µM) | 4 to 8 (≈ 7.76 to 15.5 µM) | > 8 | < 4 | < 4 | < 4 | < 4 | < 35 | < 35
CN(C)[C@@H]1C(O)=C(C(N)=O)C(=O)[C@@]2(O)C(O)=C3C(=O)c4c(O)ccc(/C=N/n5cccc5)c4C[C@H]3C[C@@H]12 [AC, (4S,4aS,5aR,12aS)-4-Dimethylamino-3,10,12,12a-tetrahydroxy-1,11-dioxo-7-(pyrrol-1-yliminomethyl)-1,4,4a,5,5a,6,11,12a-octahydro-naphthacene-2-carboxylic acid amide] | 4 to 8 (≈ 7.9 to 15.8 µM) | 4 to 8 (≈ 7.9 to 15.8 µM) | > 8 | < 4 | < 4 | < 4 | < 4 | < 35 | < 35
CCON(C)Cc1ccc(O)c2c1C[C@H]1C[C@H]3[C@H](N(C)C)C(O)=C(C(N)=O)C(=O)[C@@]3(O)C(O)=C1C2=O [AE] | 4 to 8 (≈ 7.98 to 16 µM) | 4 to 8 (≈ 7.98 to 16 µM) | > 8 | < 4 | < 4 | < 4 | < 4 | > 75 | < 35
CCO/N=C(\C)CN(C)Cc1ccc(O)c2c1C[C@H]1C[C@H]3[C@H](N(C)C)C(O)=C(C(N)=O)C(=O)[C@@]3(O)C(O)=C1C2=O [AL, (4S,4aS,5aR,12aS)-4-Dimethylamino-7-[(2-ethoxyimino-propyl)-methyl-amino]-methyl-3,10,12,12a-tetrahydroxy-1,11-dioxo-1,4,4a,5,5a,6,11,12a-octahydro-naphthacene-2-carboxylic acid amide] | 4 to 8 (≈ 7.19 to 14.4 µM) | 4 to 8 (≈ 7.19 to 14.4 µM) | 4 to 8 (≈ 7.19 to 14.4 µM) | < 4 | < 4 | < 4 | < 4 | < 35 | < 35
CCONCc1ccc(O)c2c1C[C@H]1C[C@H]3[C@@H](N(C)C)C(O)=C(C(N)=O)C(=O)[C@@]3(O)C(O)=C1C2=O [AM] | 4 to 8 (≈ 8.2 to 16.4 µM) | > 8 | > 8 | < 4 | < 4 | 4 to 8 (≈ 8.2 to 16.4 µM) | 4 to 8 (≈ 8.2 to 16.4 µM) | > 75 | > 75
CCO/N=C(/CCN(C)C)c1ccc(O)c2c1C[C@H]1C[C@H]3[C@@H](N(C)C)C(O)=C(C(N)=O)C(=O)[C@@]3(O)C(O)=C1C2=O [AN, (4R,4aS,5aR,12aS)-4-Dimethylamino-7-(3-dimethylamino-1-ethoxyimino-propyl)-3,10,12,12a-tetrahydroxy-1,11-dioxo-1,4,4a,5,5a,6,11,12a-octahydro-naphthacene-2-carboxylic acid amide] | 4 to 8 (≈ 7.19 to 14.4 µM) | < 4 | < 4 | < 4 | < 4 | < 4 | < 4 | > 75 | > 75
CN(C)[C@@H]1C(O)=C(C(N)=O)C(=O)[C@@]2(O)C(O)=C3C(=O)c4c(O)ccc(CN5CCCCO5)c4C[C@H]3C[C@@H]12 [DR] | 4 to 8 (≈ 7.79 to 15.6 µM) | 4 to 8 (≈ 7.79 to 15.6 µM) | > 8 | < 4 | < 4 | < 4 | < 4 | 35 to 75 (≈ 68.2 to 146 µM) | 35 to 75 (≈ 68.2 to 146 µM)
C/C(=N\OCC(F)(F)F)c1cc(N)c(O)c2c1C[C@H]1C[C@H]3[C@H](N(C)C)C(O)=C(C(N)=O)C(=O)[C@@]3(O)C(O)=C1C2=O [DT, (4S,4aS,5aR,12aS)-9-Amino-4-dimethylamino-3,10,12,12a-tetrahydroxy-1,1,1-dioxo-7-[1-(2,2,2-trifluoro-ethoxyimino)-ethyl]-1,4,4a,5,5a,6,11,12a-octahydro-naphthacene-2-carboxylic acid amide] | 4 to 8 (≈ 7.04 to 14.1 µM) | 4 to 8 (≈ 7.04 to 14.1 µM) | 4 to 8 (≈ 7.04 to 14.1 µM) | < 4 | < 4 | < 4 | < 4 |  | 
CN(C)[C@H]1C(O)=C(C(N)=O)C(=O)[C@@]2(O)C(O)=C3C(=O)c4c(O)ccc(CNOCC(F)F)c4C[C@H]3C[C@@H]12 [DY] | 4 to 8 (≈ 7.64 to 15.3 µM) | > 8 | > 8 | < 4 | < 4 | < 4 | 4 to 8 (≈ 7.64 to 15.3 µM) | > 75 | > 75
